From ChEMBL document CHEMBL3045164, “Combination of flavopiridol and embelin effectively inhibit cell growth in hepatocellular carcinoma depending on regulatory relationship between CDK6 and XIAP” (Med Chem Res, 2012)
pIC50: −log10 of the molar value. Each block holds one molecule with its values, some of them ahead of it. Activity calls are given as the source filed them. No cut-off for these calls is given here.

Tests used:
[1] = Cell cycle arrest in Homo sapiens (human) HepG2(2.2.1) cells assessed as accumulation at G1 phase at 300 nM after 24 hr by propidium iodide staining-based flow cytometric analysis (reference value: 53.07 +/- 3.01 %); assay type: functional
[2] = Induction of apoptosis in Homo sapiens (human) HepG2(2.2.1) cells at 500 nM after 24 hr by annexin V-FITC/propidium iodide staining-based flow cytometric analysis (reference value: 2.20%); assay type: functional
[3] = Cell cycle arrest in Homo sapiens (human) HepG2(2.2.1) cells assessed as accumulation at G1 phase at 100 nM after 24 hr by propidium iodide staining-based flow cytometric analysis (reference value: 53.07 +/- 3.01 %); assay type: functional
[4] = Cell cycle arrest in Homo sapiens (human) HepG2(2.2.1) cells assessed as accumulation at S phase at 300 nM after 24 hr by propidium iodide staining-based flow cytometric analysis (reference value: 22.55 +/- 2.98 %); assay type: functional
[5] = Cell cycle arrest in Homo sapiens (human) HepG2(2.2.1) cells assessed as accumulation at G2 phase at 100 nM after 24 hr by propidium iodide staining-based flow cytometric analysis (reference value: 24.38 +/- 2.02 %); assay type: functional
Homo sapiens [6] = organism: Homo sapiens; assay: Cytotoxicity against Homo sapiens (human) HepG2(2.2.1) cells assessed as growth inhibition at 100 nM after 24 to 72 hr by WST-8 assay in presence of 75 uM XIAP inhibitor embelin; assay type: functional, cell-based
Homo sapiens [7] = organism: Homo sapiens; assay: Cytotoxicity against Homo sapiens (human) HepG2(2.2.1) cells assessed as growth inhibition at 75 nM after 24 to 72 hr by WST-8 assay in presence of 15 uM XIAP inhibitor embelin; assay type: functional, cell-based
Homo sapiens [8] = organism: Homo sapiens; assay: Cytotoxicity against Homo sapiens (human) HepG2(2.2.1) cells assessed as growth inhibition at 75 nM after 24 to 72 hr by WST-8 assay; assay type: functional, cell-based
[9] = Cell cycle arrest in Homo sapiens (human) HepG2(2.2.1) cells assessed as accumulation at S phase at 500 nM after 24 hr by propidium iodide staining-based flow cytometric analysis (reference value: 22.55 +/- 2.98 %); assay type: functional
[10] = Cell cycle arrest in Homo sapiens (human) HepG2(2.2.1) cells assessed as accumulation at G1 phase at 500 nM after 24 hr by propidium iodide staining-based flow cytometric analysis (reference value: 53.07 +/- 3.01 %); assay type: functional
[11] = Downregulation of CDK1 expression in Homo sapiens (human) HepG2(2.2.1) cells at 500 nM after 24 hr by Western blot analysis; assay type: functional
[12] = Downregulation of CDK4 expression in Homo sapiens (human) HepG2(2.2.1) cells at 500 nM after 24 hr by Western blot analysis; assay type: functional
[13] = (§1) Cytotoxicity against Homo sapiens (human) HepG2(2.2.1) cells assessed as growth inhibition after 24 to 72 hr by WST-8 assay; assay type: functional, cell-based
Homo sapiens [14] = organism: Homo sapiens; assay: as §1; assay type: functional, cell-based
Homo sapiens [15] = organism: Homo sapiens; assay: Cytotoxicity against Homo sapiens (human) HepG2(2.2.1) cells assessed as growth inhibition at 50 nM after 24 to 72 hr by WST-8 assay in presence of 10 uM XIAP inhibitor embelin; assay type: functional, cell-based
Homo sapiens [16] = organism: Homo sapiens; assay: Cytotoxicity against Homo sapiens (human) HepG2(2.2.1) cells assessed as growth inhibition at 50 nM after 24 to 72 hr by WST-8 assay; assay type: functional, cell-based
[17] = Downregulation of XIAP expression in Homo sapiens (human) HepG2(2.2.1) cells after 24 hr by Western blot analysis; assay type: functional
[18] = Downregulation of cyclin D1 expression in Homo sapiens (human) HepG2(2.2.1) cells at 500 nM after 24 hr by Western blot analysis; assay type: functional
[19] = Cell cycle arrest in Homo sapiens (human) HepG2(2.2.1) cells assessed as accumulation at G2 phase at 500 nM after 24 hr by propidium iodide staining-based flow cytometric analysis (reference value: 24.38 +/- 2.02 %); assay type: functional
[20] = molecular target: G1/S-specific cyclin-D1 (Homo sapiens) (UniProt P24385); assay: Inhibition of cyclin D1 in Homo sapiens (human) HepG2(2.2.1) cells assessed as downregulation of XIAP expression at 500 nM after 24 hr by Western blot analysis
[21] = molecular target: Cyclin-dependent kinase 6 (Homo sapiens) (UniProt Q00534); assay: Inhibition of CDK6 in Homo sapiens (human) HepG2(2.2.1) cells assessed as downregulation of XIAP expression at 500 nM after 24 hr by Western blot analysis
[22] = Downregulation of CDK2 expression in Homo sapiens (human) HepG2(2.2.1) cells at 500 nM after 24 hr by Western blot analysis; assay type: functional
Homo sapiens [23] = organism: Homo sapiens; assay: Cytotoxicity against Homo sapiens (human) HepG2(2.2.1) cells assessed as growth inhibition at 100 nM after 24 to 72 hr by WST-8 assay; assay type: functional, cell-based
[24] = Downregulation of CDK6 expression in Homo sapiens (human) HepG2(2.2.1) cells at 500 nM after 24 hr by Western blot analysis; assay type: functional
[25] = Cell cycle arrest in Homo sapiens (human) HepG2(2.2.1) cells assessed as accumulation at S phase at 100 nM after 24 hr by propidium iodide staining-based flow cytometric analysis (reference value: 22.55 +/- 2.98 %); assay type: functional
[26] = molecular target: Cyclin-dependent kinase 4 (Homo sapiens) (UniProt P11802); assay: Inhibition of CDK4 in Homo sapiens (human) HepG2(2.2.1) cells assessed as downregulation of XIAP expression at 500 nM after 24 hr by Western blot analysis
[27] = Cell cycle arrest in Homo sapiens (human) HepG2(2.2.1) cells assessed as accumulation at G2 phase at 300 nM after 24 hr by propidium iodide staining-based flow cytometric analysis (reference value: 24.38 +/- 2.02 %); assay type: functional
[28] = Downregulation of XIAP expression in Homo sapiens (human) HepG2(2.2.1) cells at 500 nM after 24 hr by Western blot analysis; assay type: functional
Homo sapiens [29] = organism: Homo sapiens; assay: Cytotoxicity against Homo sapiens (human) HepG2(2.2.1) cells assessed as growth inhibition at 10 uM after 24 to 72 hr by WST-8 assay; assay type: functional, cell-based
Homo sapiens [30] = organism: Homo sapiens; assay: Cytotoxicity against Homo sapiens (human) HepG2(2.2.1) cells assessed as growth inhibition at 20 uM after 24 to 72 hr by WST-8 assay; assay type: functional, cell-based
Homo sapiens [31] = organism: Homo sapiens; assay: Cytotoxicity against Homo sapiens (human) HepG2(2.2.1) cells assessed as growth inhibition at 15 uM after 24 to 72 hr by WST-8 assay; assay type: functional, cell-based

Cyclin-dependent kinase 4 (Homo sapiens), sequence (P11802 whole entry): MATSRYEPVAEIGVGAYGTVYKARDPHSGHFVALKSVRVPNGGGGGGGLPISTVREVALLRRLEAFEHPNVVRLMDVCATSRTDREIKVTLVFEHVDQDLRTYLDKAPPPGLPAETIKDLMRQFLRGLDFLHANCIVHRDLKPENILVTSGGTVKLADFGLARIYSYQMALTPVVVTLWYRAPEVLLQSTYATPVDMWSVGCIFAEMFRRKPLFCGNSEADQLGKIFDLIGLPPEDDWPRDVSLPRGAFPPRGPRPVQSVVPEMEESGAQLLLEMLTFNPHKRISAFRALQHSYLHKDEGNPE
Cyclin-dependent kinase 6 (Homo sapiens), sequence (Q00534 whole entry): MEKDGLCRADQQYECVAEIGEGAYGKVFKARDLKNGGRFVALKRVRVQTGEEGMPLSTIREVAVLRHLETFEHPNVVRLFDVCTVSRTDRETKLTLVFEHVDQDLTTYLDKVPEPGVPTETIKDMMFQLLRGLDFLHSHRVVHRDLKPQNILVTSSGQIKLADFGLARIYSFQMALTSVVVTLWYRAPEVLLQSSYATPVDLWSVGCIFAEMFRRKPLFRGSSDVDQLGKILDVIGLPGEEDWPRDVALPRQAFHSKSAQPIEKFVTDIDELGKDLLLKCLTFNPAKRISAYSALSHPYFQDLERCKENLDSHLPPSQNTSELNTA
G1/S-specific cyclin-D1 (Homo sapiens), sequence (P24385 whole entry): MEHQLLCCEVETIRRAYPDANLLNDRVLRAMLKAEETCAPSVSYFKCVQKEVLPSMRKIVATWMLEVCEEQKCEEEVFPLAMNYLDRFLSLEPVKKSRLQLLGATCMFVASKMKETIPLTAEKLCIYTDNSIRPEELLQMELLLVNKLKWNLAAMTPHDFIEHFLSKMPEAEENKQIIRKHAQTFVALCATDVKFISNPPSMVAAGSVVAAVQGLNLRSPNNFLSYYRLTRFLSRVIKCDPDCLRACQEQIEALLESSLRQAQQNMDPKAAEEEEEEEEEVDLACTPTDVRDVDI

- inhibition [20]: Active
- inhibition [21]: Active
- inhibition [26]: Active
Compound: CN1CC[C@H](c2c(O)cc(O)c3c(=O)cc(-c4ccccc4Cl)oc23)[C@H](O)C1 [ALVOCIDIB]
- Activity [1]: 56.4%
- Activity [2]: 14.28%
- Activity [3]: 54.6%
- Activity [4]: 27.9%
- Activity [5]: 23.2%
- growth inhibition (GI) (Homo sapiens [6]): Active
- growth inhibition (GI) (Homo sapiens [7]): Active
- growth inhibition (GI) (Homo sapiens [8]): Active
- Activity [9]: 21.2%
- Activity [10]: 57.9%
- Activity [11]: inactive
- Activity [12]: Active
- pIC50 [13]: 6.70
- growth inhibition (GI) (Homo sapiens [14]): Dose-dependent effect
- growth inhibition (GI) (Homo sapiens [15]): Active
- growth inhibition (GI) (Homo sapiens [16]): Active
- Activity [17]: Dose-dependent effect
- Activity [18]: Active
- Activity [19]: 20.9%
- Activity [22]: inactive
- growth inhibition (GI) (Homo sapiens [23]): Active
- Activity [24]: Active
- Activity [25]: 22.2%
- Activity [27]: 15.7%
- Activity [28]: Active

Compound: CCCCCCCCCCCC1=C(O)C(=O)C=C(O)C1=O
- growth inhibition (GI) (Homo sapiens [29]): Active
- growth inhibition (GI) (Homo sapiens [30]): Active
- growth inhibition (GI) (Homo sapiens [31]): Active
